# Data published in ChEMBL document CHEMBL4482324, “Ash1l inhibitors and methods of treatment therewith” (2017).
# Biological target: Histone-lysine N-methyltransferase ASH1L (Homo sapiens, UniProt Q9NR48)
# Test: Inhibition of MOCR-fused ASH1L SET-BAH ( 2069 to 2833 amino acids) (unknown origin) expressed as in Escherichia coli BL21 (DE3) T1R cells using SAM and chicken mono/dinucleosomes incubated for 1 hr by scintillation counting assay
row,Compound,IC50
1,NC(=S)c1nccs1,> 100 µM
2,NC(=S)c1cc(-c2cn(CCC(F)F)c3cc(CO)ccc23)ccn1,< 20 µM
3,CCCS(=O)(=O)N1CCC(n2cc(-c3cccc(C(N)=S)c3)c3ccc(CNc4c[nH]c(C)n4)cc32)CC1,< 20 µM
4,CCCS(=O)(=O)N1CCC(n2cc(-c3cccc(C(N)=S)c3)c3ccc(CNC(=O)CCCCc4cccc5c4C(=O)N(C4CCC(=O)NC4=O)C5=O)cc32)CC1 (stereo unspecified),< 20 µM
5,NC(=S)c1cccc(-c2cn(CCC(F)F)c3cc(N4CCOCC4)ccc23)c1,< 20 µM
6,CS(=O)(=O)N1CCC(n2cc(-c3cccc(C(N)=S)c3)c3ccc(CNC(=O)CC4CCNC4)cc32)CC1 (stereo unspecified),< 20 µM
7,NC(=S)c1cccc(-c2cn(CCC(F)F)c3cc(CO)ccc23)c1,< 20 µM
8,CN1c2ccccc2CCc2ccc(C(N)=S)cc21,> 100 µM
9,NC(=S)c1ccc(N)c(-c2cccc3[nH]ccc23)c1,> 100 µM
10,NC(=S)c1cccc(-c2cn(CCC(F)F)c3cc(NC(=O)CC4CC4)ccc23)c1,< 20 µM
11,NC(=S)c1cccc(-c2cn(CC(CF)CF)c3cc(NCCc4c[nH]cn4)ccc23)c1,< 20 µM
12,CS(=O)(=O)N1CCC(n2cc(-c3cccc(C(N)=S)c3)c3ccc(CNC(=O)Cc4ccc[nH]4)cc32)CC1,< 20 µM
13,CSCCn1cc(-c2cccc(C(N)=S)c2)c2ccccc21,> 100 µM
14,NCc1ccc2c(-c3cccc(C(N)=S)c3)cn(CCO)c2c1,13 µM
15,CCNc1c[nH]c(CC(=O)NCc2ccc3c(-c4cccc(C(N)=S)c4)cn(C4CCN(S(C)(=O)=O)CC4)c3c2)c1,< 20 µM
16,NC(=S)c1cccc(-c2cn(CCCC(F)(F)F)c3cc(CNC(=O)c4ccccc4)ccc23)c1,< 20 µM
17,NC(=S)c1cccc(-c2cn(Cc3cnc[nH]3)c3cc(CO)ccc23)c1,< 20 µM
18,NC(=S)c1cccc(-c2ccc(O)cc2)c1F,> 100 µM
19,NC(=S)c1cc(-c2cn(CCC(F)F)c3cc(CO)ccc23)c2[nH]ccc2c1,< 20 µM
20,NC(=S)c1cccc(-c2cccc3[nH]ccc23)c1,20 to 100 µM
21,CCCS(=O)(=O)N1CCC(n2cc(-c3cccc(C(N)=S)c3)c3ccc(CNC(=O)Cc4cc(C)[nH]n4)cc32)CC1,< 20 µM
22,NC(=S)c1ccnc(-n2cccc2)c1,> 100 µM

row,Compound,IC50
1,NC(=S)c1cccc(-c2cn(CC(O)CO)c3cc(N)ccc23)c1 (stereo unspecified),< 20 µM
2,NC(=S)c1cccc(-c2cn(CCCC(F)(F)F)c3cc(N)ccc23)c1,< 20 µM
3,CC(O)c1ccc2c(-c3cccc(C(N)=S)c3)cn(CCC(F)F)c2c1 (stereo unspecified),< 20 µM
4,CSC(=N)c1cccc(-c2ccccc2)c1,> 100 µM
5,NC(=S)c1cccc(-c2cn(CC3CC(F)C(F)C3)c3cc(CO)ccc23)c1 (stereo unspecified),< 20 µM
6,NC(=S)c1cccc(-c2cn(CC(C(F)F)C(F)F)c3cc(C(O)CCF)ccc23)c1 (stereo unspecified),< 20 µM
7,NC(=S)c1cccc(-c2cn(CCCC(F)(F)F)c3cc(N)ccc23)n1,< 20 µM
8,NC(=S)c1cccc(-c2cn(CC(C(F)F)C(F)F)c3cc(CO)ccc23)c1,< 20 µM
9,NC(=S)c1cccc(-c2cn(CC(CF)CF)c3cc(CO)ccc23)n1,< 20 µM
10,NC(=S)c1cccc(-c2cn(CCC(F)F)c3cc(CF)ccc23)c1,< 20 µM
11,NC(=S)c1cccc(-c2cn(C3CCOCC3)c3cc(N)ccc23)c1,< 20 µM
12,CCCS(=O)(=O)N1CCC(n2cc(-c3cccc(C(N)=S)c3)c3ccc(CNC(=O)Cc4c[nH]cn4)cc32)CC1,< 20 µM
13,NC(=S)c1cccc(-c2ccc(O)c(F)c2)c1,> 100 µM
14,CS(=O)(=O)NCc1ccc2c(-c3cccc(C(N)=S)c3)cn(CCCC(F)(F)F)c2c1,< 20 µM
15,NC(=S)c1cccc(-c2c[nH]c3cccc(O)c23)c1,> 100 µM
16,NCc1cccc2c(-c3cccc(C(N)=S)c3)c[nH]c12,20 to 100 µM
17,NC(=S)c1cccc(-c2cccc(O)c2)c1,> 100 µM
18,NC(=S)c1cccc(-c2cn(CC3C(F)(F)CC3(F)F)c3cc(CO)ccc23)c1,< 20 µM
19,NC(=S)c1cccc(-c2cn(CCC(F)F)c3cc4c(cc23)CCNC4)c1,< 20 µM
20,NC(=S)c1cccc(-c2cn(C3CCOCC3)c3cc(SCCO)ccc23)c1,< 20 µM
21,CC(C)(C)OC(=O)Nc1nc(CC(=O)NCc2ccc3c(-c4cccc(C(N)=S)c4)cn(CCCC(F)(F)F)c3c2)cs1,< 20 µM
22,NC(=S)c1ccc(-c2ccccc2)s1,> 100 µM

row,Compound,IC50
1,NC(=S)c1cccc(-c2ccccn2)c1,> 100 µM
2,CC1(Cn2cc(-c3cccc(C(N)=S)c3)c3ccc(CO)cc32)CC1,< 20 µM
3,CNCc1ccc2c(-c3cccc(C(N)=S)c3)c[nH]c2c1,20 to 100 µM
4,CCCS(=O)(=O)N1CCC(n2cc(-c3cccc(C(N)=S)c3)c3ccc(N)cc32)CC1,< 20 µM
5,NC(=S)c1cncc(-c2ccc(O)cc2)c1,> 100 µM
6,NC(=S)c1cccc(-c2cc(CC(CF)CF)c3cc[nH]c3c2)c1,< 20 µM
7,NC(=S)c1cccc(-c2cn(CC(CF)CF)c3cc(C(O)CO)ccc23)c1 (stereo unspecified),< 20 µM
8,NC(=S)c1cccc(-c2cn(CC3(O)CCC3)c3cc(CO)ccc23)c1,< 20 µM
9,Cc1cc(O)cc(C)c1-c1cccc(C(N)=S)c1,> 100 µM
10,NC(=S)c1cccc(-c2cn(CCCC(F)(F)F)c3cc(NCC(F)(F)F)ccc23)c1,< 20 µM
11,NC(=S)c1cccc(-c2cn(CCCC(F)(F)F)c3cc(CNC(=O)CCc4c[nH]cn4)ccc23)c1,< 20 µM
12,NC(=S)c1cccc(-c2cn(Cc3cn[nH]c3)c3cc(N)ccc23)c1,20 to 100 µM
13,NCCOCCOc1ccc(-c2cccc(C(N)=S)c2)c2cc[nH]c12,20 to 100 µM
14,Cn1cc(-c2cccc(C(N)=S)c2)c2ccccc21,20 to 100 µM
15,NC(=S)c1cccc(-c2cn(Cc3ccc[nH]3)c3cc(CO)ccc23)c1,< 20 µM
16,CNc1ccc2c(-c3cccc(C(N)=S)c3)c[nH]c2c1,20 to 100 µM
17,NC(=S)c1cccc(-c2cccc3[nH]c(CO)cc23)c1,> 100 µM
18,NC(=S)c1cccc(-c2cn(C3CCNCC3)c3cc(N)ccc23)c1,< 20 µM
19,COCc1cc2c(-c3cccc(C(N)=S)c3)cccc2n1C,20 to 100 µM
20,NC(=S)c1cccc(-c2cn(CC(CF)CF)c3cc(CO)ccc23)c1,< 20 µM
21,NC(=S)c1cc(-c2ccccc2)cs1,> 100 µM
22,NC(=O)c1cc(-c2cn(CCC(F)F)c3cc(CO)ccc23)ccc1O,< 20 µM

row,Compound,IC50
1,NC(=S)c1cccc(-c2cn(CC(C(F)F)C(F)F)c3cc(N)ccc23)c1,< 20 µM
2,NC(=S)c1cccc(-c2cn(C3CCN(S(=O)(=O)C(F)(F)F)CC3)c3cc(CNC(=O)Cc4ccc[nH]4)ccc23)c1,< 20 µM
3,NC(=S)c1cccc(-n2cc(CC(CF)CF)c3cc(CO)ccc32)c1,< 20 µM
4,NC(=O)c1cccc(-c2cn(CCC(F)F)c3cc(CO)ccc23)c1,< 20 µM
5,COc1ccccc1-c1cccc(C(N)=S)c1,> 100 µM
6,NC(=S)c1cccc(-c2cn(C3CCN(S(=O)(=O)CCCNC(=O)c4ccc5c(c4)C(=O)OC54c5ccc(O)cc5Oc5cc(O)ccc54)CC3)c3cc(CNC(=O)Cc4c[nH]cn4)ccc23)c1,< 20 µM
7,NC(=S)c1cccc(-c2cc(C(F)(F)F)cc3c2ccn3CC(F)(F)F)c1,20 to 100 µM
8,NC(=S)c1cccc(-c2cn(CC(CO)CO)c3cc(N)ccc23)c1,< 20 µM
9,CNc1ccc(-c2cccc3[nH]ccc23)cc1C(N)=S,> 100 µM
10,OCc1ccc2c(-c3cccc4c3CNC4=S)cn(CCC(F)F)c2c1,< 20 µM
11,CCCn1cncc1CC(=O)NCc1ccc2c(-c3cccc(C(N)=S)c3)cn(C3CCN(S(=O)(=O)CCC)CC3)c2c1,< 20 µM
12,NC(=S)c1ccsc1,> 100 µM
13,NC(=S)c1cc(-c2cccc3[nH]ccc23)ccc1O,> 100 µM
14,NC(=S)c1cccc(-c2cn(CC(CF)CF)c3cc(CF)ccc23)c1,< 20 µM
15,CCCn1cnc(CC(=O)NCc2ccc3c(-c4cccc(C(N)=S)c4)cn(C4CCN(S(=O)(=O)CCC)CC4)c3c2)c1,< 20 µM
16,NC(=S)c1cccc(-c2cn(CC3(C(F)(F)F)CC3)c3cc(N)ccc23)c1,< 20 µM
17,Cc1ncsc1-c1ccc(CNC(=O)[C@@H]2C[C@@H](O)CN2C(=O)[C@@H](NC(=O)COCCOCCNC(=O)CCC(=O)Nc2ccc3c(-c4cccc(C(N)=S)c4)cn(CC(CF)CF)c3c2)C(C)(C)C)cc1,< 20 µM
18,NC(=S)c1cccc(-c2cn(C3CCN(C(=O)CCCCc4cccc5c4C(=O)N(C4CCC(=O)NC4=O)C5=O)CC3)c3cc(CNc4nnc(N)s4)ccc23)c1 (stereo unspecified),< 20 µM
19,CS(=O)(=O)N1CCC(n2cc(-c3cccc(C(N)=S)c3)c3ccc(CNc4nnc(N)s4)cc32)CC1,< 20 µM
20,NC(=S)c1cccc(-c2cn(CCC(O)C(F)(F)F)c3cc(N)ccc23)c1 (stereo unspecified),20 to 100 µM
21,NC(=S)c1cccc(-c2cn(CCCC(F)(F)F)c3cc(CO)ccc23)c1,< 20 µM
22,NCc1ccc(-c2cccc(C(N)=S)c2)cc1,> 100 µM

row,Compound,IC50
1,CCCCn1cnc(CC(=O)NCc2ccc3c(-c4cccc(C(N)=S)c4)cn(C4CCOCC4)c3c2)c1,< 20 µM
2,NC(=S)c1cccc(-c2c[nH]c3cc(C(N)=S)ccc23)c1,20 to 100 µM
3,CCCS(=O)(=O)N1CCC(n2cc(-c3cccc(C(N)=S)c3)c3ccc(CNc4ncc(N)s4)cc32)CC1,< 20 µM
4,Cc1ccc(C(N)=S)cc1-c1ccc(O)cc1,> 100 µM
5,NC(=S)c1cccc(-c2cccc3c2ccn3CO)c1,20 to 100 µM
6,NC(=S)c1cccc(-c2cccc3[nH]ccc23)c1O,> 100 µM
7,Cc1c[nH]c2cccc(-c3cccc(C(N)=S)c3)c12,> 100 µM
8,NC(=S)c1cccc(-c2ccc(CCC(F)F)c3[nH]c(CO)cc23)c1,< 20 µM
9,NC(=S)c1cc(-c2cccc3[nH]ccc23)ccc1N,> 100 µM
10,NC(=S)c1cc(-c2ccc(O)cc2)ccc1F,> 100 µM
11,NC(=S)c1cccc(-c2ccc(O)cc2F)c1,> 100 µM
12,NC(=S)c1cccc(-c2cn(CCC(F)F)c3cc(CO)ccc23)n1,< 20 µM
13,NC(=S)c1cc(-c2cn(CCC(F)F)c3cc(CO)ccc23)c2ocnc2c1,< 20 µM
14,NC(=S)c1cccc(-c2cn(C3CCCCC3)c3cc(CO)ccc23)c1,< 20 µM
15,NC(=S)c1cccc(-c2c[nH]c3cccnc23)c1,> 100 µM
16,NC(=S)c1cncc(-c2cccc3[nH]ccc23)c1,> 100 µM
17,NC(=S)c1cccc(-c2c[nH]c3cc4cc[nH]c4cc23)c1,< 20 µM
18,NC(=S)c1cccc(-c2cn(CCC(F)F)c3cc4cc[nH]c4cc23)c1,< 20 µM
